Experimental findings from US20010002251A1, “Intracellular sensitizers for sonodynamic therapy” (Pharmacyclics, Inc., priority 1998, published 2001) are described below.

In data set [1] the test system is murine leukemia L1210 cells. The experiment in a line: Cell fragmentation after ultrasound (Coulter particle size distribution). The data set is classed as cell-based. Conditions: 6 μM sensitizer, 15 min loading at 37° C., only intracellular texaphyrin; ultrasound 1.94 MHz, 3.9 W/cm^2. The method, then:
(§1) The effect of low-level, non-thermal ultrasound on the murine leukemia L1210 cell line in culture, measuring ultrasound-induced cytotoxicity is determined by a modification of the procedure initially described by Kessel et al., 1994. Int. J. Radiat. Biol., 66 (1994). Sonodynamic therapy with and without a texaphyrin and with and without low intensity irradiation of ultrasound. A murine 1210 cell line was used, The cytotoxicity of low-intensity ultrasound on murine leukemia L1210 cells is associated with cell fragmentation, and was detected by measuring the inhibition of the active transport of a non-metabolized amino acid (cytoleucine) and by a viability assay.
(§2) Cell Culture Systems—Murine leukemia L1210 cells were grown in Fischer's medium (GIBCO, Grand Island, N.Y.) supplemented with glutamine, 10% horse serum and gentamicin. All operations were carried out at 37° C. […]
Fragmentation and Viability Studies—Cell counts and the particle size distribution were determined with a Coulter Electronics ZM Particle Analyzer and Model 256 Channelyzer. The Channelyzer determines the mean particle volume; intact cells were detected in channels 80-110. […] Cell counts were again determined after incubation for sufficient time to allow the number of control (untreated) cells to reach 20,000/ml, approximately 5 doublings.

Data set [2] concerns Colon 26 tumor cells. The experiment in a line: Experimental kidney tumor assay of sonodynamic sensitizing activity. It is filed as in vivo, mouse. Conditions: 1.0 mg/kg i.v., ultrasound 24 hours later, 5 minutes, 0.5 and 1 MHz, 8 W/cm^2; sacrifice after 7 days. Here is the method:
In vivo activity for sonodynamic therapy is determined, e.g., by post-mortum histological examination of tumor tissue by hematoxylin and eosin, as described in Yumita et al., Cancer Letters 112 (1997). The antitumor effects of sonodynamic therapy are evaluated by implanting tumor cells into one kidney in a mouse (the other kidney remaining untreatd and serving as a control). Approximately 24 hours after intravenous administration of a sonodynamic sensitizer to be tested, the mouse is anesthesized and the tumorous kidney exteriorized. The position and the angle of the mouse are adjusted to facilitate ultrasound ultrasound penetration of the entire kidney, with the tumor at the focal spot. Ultrasound is delivered in continuous waves by a focused array transducer, the kidney is returned to the abdominal cavity and the abdomen is closed. After 7 days the mouse is sacrificed and the kidneys stained with hematoxylin and eosin for histologic examination. The tumor bearing and control kidneys are compared.
This procedure is a modification of a procedure initially described by Yumita et al., Cancer Letters 112 (1997).
Colon 26 tumor cells are implanted into one kidney in a male CDF mouse (the other kidney remaining untreated and serving as a control). After 14 days, 1.0 mg/kg of a texaphyrin is administered by intravenous injection. 24 Hours later, the mouse is anesthetized and the tumorous kidney exteriorized. The position and the angle of the mouse are adjusted to facilitate ultrasound ultrasound penetration of the entire kidney, with the tumor at the focal spot. Ultrasound is delivered in continuous waves by a focused array transducer. The tumor is exposed to focused ultrasound for 5 minutes in a progressive wave mode, at a frequency of 0.5 MHz for the first wave and 1 MHz for the second wave, at an intensity of 8 W/cm^2 followed by the second-harmonic superimposition of ultrasound at the same intensity, for a total exposure of 5 minutes. The kidney is returned to the abdominal cavity and the abdomen is closed. […]

Data set [3] has as its system murine leukemia L1210 cells. Nature of the data set: Viability (growth) assay after ultrasound. It is filed as cell-based. The note with it: for Viability: 6 μM sensitizer, 15 min loading at 37° C., only intracellular texaphyrin, ultrasound 1.94 MHz, 3.9 W/cm^2; for potentiation of the cytotoxic effect of ultrasound: cells previously exposed to 6 μM, ultrasound at 3.9 W/cm. Here is the method: as §1
Cell Culture Systems—Murine leukemia L1210 cells were grown in Fischer's medium (GIBCO, Grand Island, N.Y.) supplemented with glutamine, 10% horse serum and gentamicin. All operations were carried out at 37° C. Exponentially growing cells were collected by centrifugation, resuspended (5×10^6 cells/ml) in serum-free Fischer's medium buffered to pH 7.0 with 20 mM HEPES.
Sensitizers—Lutetium Texaphyrin (Lu-Tex or PCI-0123) and Gadolinium Texaphyrin (Gd-Tex or PCI-0120) were dissolved in water at a concentration of 6 μM.
Test Groups—Four groups of cells were established: Control A (no sensitizer and no ultrasound), Control B (no sensitizer, with ultrasound); 6 μM Lu-Tex with ultrasound, and 6 μM Gd-Tex with ultrasound. A small volume of the respective sensitizers were added to the Lu-Tex and Gd-Tex groups followed by a loading incubation of 15 minutes at 37° C. The cells were then suspended in fresh (serum free) medium, such that only intracellular texaphyrin remained.
Ultrasound—Exposure of cell suspensions (except Control A) to ultrasound was carried out in 2.5 cm diameter petri dishes in a bath of degassed water. A 2.54-cm-diameter transducer (Valpey-Fisher) was driven by a power amplifier (ENI 240L) with a continuous wave 1.94 MHz sinusoidal signal source (Wavetek Model 23). The acoustic field was calibrated with a Marconi PVDF membrane hydrophone in a free field condition 3.0 cm from the surface of the transducer which is also the distance from the face to the exposure dish. The acoustic intensity, expressed in terms of the spatial peak temporal average (SPTA), was 3.9 W/cm^2.
Fragmentation and Viability Studies—Cell counts and the particle size distribution were determined with a Coulter Electronics ZM Particle Analyzer and Model 256 Channelyzer. The Channelyzer determines the mean particle volume; intact cells were detected in channels 80-110. Smaler particles represent debris resulting from cell fragmentation. […] Cell counts were again determined after incubation for sufficient time to allow the number of control (untreated) cells to reach 20,000/ml, approximately 5 doublings.

Data set [4] has as its system murine leukemia L1210 cells. The experiment in a line: Amino acid (cytoleucine) transport after ultrasound in L1210 cells. It is filed as cell-based. The note with it: 6 μM sensitizer, 15 min loading at 37° C., only intracellular texaphyrin; ultrasound 1.94 MHz, 3.9 W/cm^2. Here is the method: as §1, §2
Amino Acid Transport—The effect of ultrasound on the capacity of L1210 cells for concentrative accumulation of the non-metabolized amino-acid cytoleucine was assesed as a probe for damage to membrane […] systems. […] After 15 minutes, the cells were collected by centrifugation, washed with isotonic NaCl and cell radioactivity determined by liquid scintillation counting. […]

Data set [5] can be described thus: Maximum tolerated dose study. It is filed as in vivo. Conditions: determined in one study; intravenous injection. Here is the method: For example, Lutetium Texaphyrin is administered in solution containing 2 mg/ml optionally in 5% mannitol, USP. Dosages of about 1.0 or 2.0 mg/kg to about 4.0 or 5.0 mg/kg, preferably 3.0 mg/kg may be employed, up to a maximum tolerated dose that was determined in one study to be 5.2 mg/kg. The texaphyrin is administered by intravenous injection, followed by a waiting period of from as little as several minutes or about 3 hours to as long as about 72 or 96 hours (depending on the treatment being effected) to facilitate intracellular uptake and clearance from the plasma and extracellular matrix prior to the administration of the sonodynamic agent. The co-administration of a sedative (e.g., benzodiazapenes) and narcotic analgesic are sometimes recommended prior to topical (as opposed to intravascular) light treatment. Topical administration. of Emla cream (lidocaine, 2.5% and prilocaine, 2.5%) under an occlusive dressing and other intradermal, subcutaneous and topical anesthetics may also be employed as necessary to reduce discomfort. Similar patient comfort considerations may apply in sonodynamic therapy, as will be apparent to the treating physician. Subsequent treatments can be provided after suitable time interval, currently approximately 21 days. […]

In the case of `CC(=O)[O-].CC(=O)[O-].CCc1c(CC)c2cc3nc(cnc4cc(OCCOCCOCCOC)c(OCCOCCOCCOC)cc4ncc4nc(cc1[n-]2)C(CCCO)=C4C)C(C)=C3CCCO.O.[Gd+3]` [Gd-Tex, Gadolinium Texaphyrin], the Fragmentation in data set [1] amounted to 64 ± 4. For the same compound, the “comparison of tumor-bearing and control kidneys (histologic examination)” value (shortened to “comparison … (histologic examination)”) in data set [2] is reported as “substantially the same”. In addition, in data set [3], the Viability was determined as 42 ± 5 and the “potentiation of the cytotoxic effect of ultrasound” value is “substantial potentiation”. Besides, the “Amount of Cytoleucene Transported” value in data set [4] was 3.2 ± 0.4.
Consider `CC(=O)[O-].CC(=O)[O-].CCc1c(CC)c2cc3nc(cnc4cc(OCCOCCOCCOC)c(OCCOCCOCCOC)cc4ncc4nc(cc1[n-]2)C(CCCO)=C4C)C(C)=C3CCCO.O.[Lu+3]` [Lu-Tex, Lutetium Texaphyrin], for which the Fragmentation in data set [1] is 73 ± 6. In addition, the “comparison … (histologic examination)” value in data set [2] was “substantially the same”. For the same compound, in data set [3], the Viability amounted to 24 ± 3 and the “potentiation of the cytotoxic effect of ultrasound” value is reported as “substantial potentiation”. For the same compound, the “Amount of Cytoleucene Transported” value in data set [4] turned out to be 2.8 ± 0.3. Moreover, the maximum tolerated dose in data set [5] is on record as 5.2 mg/kg.
On to yttrium texaphyrin, for which the “comparison … (histologic examination)” value in data set [2] is reported as “substantially the same”.
